In patent US8492420B2, “Use of purine derivatives for the production of medicaments for the treatment of mucoviscidosis and diseases related to protein addressing errors in cells” (Centre National de la Recherche Scientifique-CNRS, priority 2004, dated 2013):
“Also recorded” adds a separate entry of the source. Read-outs that look alike come from different tables or passages of the source.

Assays:
delF508-CFTR [1] = target: T1, delF508-CFTR (Homo sapiens, UniProt P13569, DEL508-508); test: Iodide efflux test of delF508 addressing in CF15 cells
T1 sequence (P13569 with tags, fused parts or gaps DEL508-508): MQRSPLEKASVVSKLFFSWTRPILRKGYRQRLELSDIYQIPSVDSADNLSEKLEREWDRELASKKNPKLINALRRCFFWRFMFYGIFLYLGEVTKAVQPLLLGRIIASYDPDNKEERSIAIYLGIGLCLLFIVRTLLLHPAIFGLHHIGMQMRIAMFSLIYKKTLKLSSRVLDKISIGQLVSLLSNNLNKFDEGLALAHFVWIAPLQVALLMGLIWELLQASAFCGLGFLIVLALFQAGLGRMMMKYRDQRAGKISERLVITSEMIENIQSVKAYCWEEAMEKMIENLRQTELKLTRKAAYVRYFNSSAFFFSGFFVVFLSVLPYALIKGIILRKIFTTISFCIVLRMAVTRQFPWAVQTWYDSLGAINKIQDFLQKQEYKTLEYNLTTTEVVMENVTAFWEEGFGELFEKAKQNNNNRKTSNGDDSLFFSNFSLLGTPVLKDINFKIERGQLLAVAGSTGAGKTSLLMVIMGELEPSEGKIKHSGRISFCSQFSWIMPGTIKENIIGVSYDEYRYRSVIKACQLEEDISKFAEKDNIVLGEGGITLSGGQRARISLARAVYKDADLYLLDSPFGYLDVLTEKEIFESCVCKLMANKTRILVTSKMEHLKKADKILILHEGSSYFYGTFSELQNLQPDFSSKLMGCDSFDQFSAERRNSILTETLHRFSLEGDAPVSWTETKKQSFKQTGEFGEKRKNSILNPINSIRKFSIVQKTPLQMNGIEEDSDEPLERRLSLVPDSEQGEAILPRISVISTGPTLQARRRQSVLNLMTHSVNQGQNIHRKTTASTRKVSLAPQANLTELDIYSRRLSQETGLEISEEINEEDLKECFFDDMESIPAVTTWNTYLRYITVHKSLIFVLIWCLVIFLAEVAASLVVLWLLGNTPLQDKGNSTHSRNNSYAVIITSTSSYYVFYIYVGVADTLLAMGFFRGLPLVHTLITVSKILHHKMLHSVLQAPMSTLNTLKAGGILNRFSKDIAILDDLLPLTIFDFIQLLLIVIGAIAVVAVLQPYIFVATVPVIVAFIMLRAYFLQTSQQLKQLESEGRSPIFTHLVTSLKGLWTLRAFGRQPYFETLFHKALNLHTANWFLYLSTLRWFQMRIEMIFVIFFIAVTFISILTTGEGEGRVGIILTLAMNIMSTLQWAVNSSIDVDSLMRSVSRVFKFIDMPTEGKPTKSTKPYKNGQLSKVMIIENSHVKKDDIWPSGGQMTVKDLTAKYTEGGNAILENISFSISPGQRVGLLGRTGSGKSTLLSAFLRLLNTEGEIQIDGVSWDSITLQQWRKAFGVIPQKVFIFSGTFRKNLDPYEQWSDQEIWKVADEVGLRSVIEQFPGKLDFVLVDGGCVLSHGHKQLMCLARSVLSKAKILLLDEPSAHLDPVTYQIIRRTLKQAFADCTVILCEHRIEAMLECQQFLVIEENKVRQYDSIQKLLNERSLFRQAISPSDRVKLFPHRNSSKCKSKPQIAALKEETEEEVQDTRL
Experimental: These cells will therefore overexpress the CFTR protein. • Culture medium: MEM alpha medium (GIBCO)+7% foetal calf serum+0.5% penicilline/streptomycin+100 μM methotrexate (amethopterine, Sigma). • CF15 cells: CF15 cells are human nasal epithelial cells expressing the ΔF508-CFTR gene. • Culture medium: DMEM+HAM F12 medium+10% FCS+0.6% penicilline/streptomycin+growth factors (5 μg/ml insulin, 5 μg/ml transferrin, 5.5 μM epinephrin, 0.18 mM adenine, 10 ng/ml EGF, 2 nM T3, 1.1 μM hydrocortisone). • Calu-3 cells: Calu-3 cells are human lung epithelial cells expressing the wild-type CFTR gene. • Culture medium: DMEM/F12 medium with glutamax+7% foetal calf serum+1% penicillin/streptomycin.
Measurements of chloride ion transport in the cells were performed using the radioactive iodide efflux technique (Becq and al., 1999; Dormer and al., 2001). The ^125I tracer is incorporated into the intracellular milieu. The quantity of radiotracer coming out of the cell is then measured after adding various pharmacological agents. Iodide is used as a tracer of chloride ion transport. ^125I has the advantage of being short-lived compared to other markers such as ^35CI (respective half-lives: 30 days and 300,000 years).
The cells are incubated in an appropriate medium in 24-well plates. The cells are rinsed twice with efflux medium (136.6 mM NaCl, 5.4 mM KCl, 0.3 mM KH2PO4, 0.3 mM NaH2PO4, 4.2 mM NaHCO3, 1.3 mM CaCl2, 0.5 mM MgCl2, 0.4 mM MgSO4, 10 mM HEPES, 5.6 mM D-glucose) in order to eliminate dead cells, which release radioactivity in an anarchic fashion. The cells are then incubated with a 500-μl load (1 μCi/ml ^125INa) for 30 min for CHO-WT or 1 hr for CF15 and Calu-3 cells. The iodide equilibrates on either side of the cell membrane. The following steps are performed using a MultiPROBE probe (Packard): the loading medium is rinsed with efflux medium in order to eliminate extracellular radioactivity. The supernatant is collected every minute into haemolysis tubes and the medium is replaced by an equivalent volume of medium (500 μl). No drug is added to the samples taken in the first three minutes in order to obtain a stable baseline characterising the passive exit of I ions. The 7 samples that follow are obtained in the presence of the molecule to be tested. At the end of the experiment, the cells are lysed by adding 500 μl of 0.1 N NaOH/0.1% SDS (30 min), which allows determining the level of radioactivity remaining inside the cell. The radioactivity present in the haemolysis tubes is measured as counts per minute (cpm) using a Cobra II gamma counter (Packard). The results (cpm) are expressed as velocity of radioactive iodide efflux (R) according to the formula: R (min^−1)=[In(^125I t1)−In(^125I t2)]/(t1−t2) where ^125I t1=at time t1 and ^125I t2=at time t2. This iodide flux is represented by a graph. In order to quantify the iodide efflux due to administration of the tested molecule, the relative flux is calculated as follows in order to ignore the basal flux: Relative velocity (min^−1)=Rpeak−Rbasal. […] The results are presented in the form of a mean +/−SEM. Student's statistical test is used to compare the effect of the various drugs with the controls (the corresponding P<0.01 values are considered to be statistically significant).
For each experiment, the addition of a cocktail (10 μM Forskoline+30 μM Genisteine) allows activation of the CFTR when the latter is localised in the membrane. This allows an iodide efflux to be observed if delF508 addressing has been restored.

wild-type CFTR [2] = target: T2, wild-type CFTR (Homo sapiens, UniProt P13569); test: Iodide efflux test of CFTR activation in Calu-3 cells; assay type: cell-based; details: n=8, controls forskoline 5 μM and MPB-91 250 μM
T2 sequence (P13569 whole entry): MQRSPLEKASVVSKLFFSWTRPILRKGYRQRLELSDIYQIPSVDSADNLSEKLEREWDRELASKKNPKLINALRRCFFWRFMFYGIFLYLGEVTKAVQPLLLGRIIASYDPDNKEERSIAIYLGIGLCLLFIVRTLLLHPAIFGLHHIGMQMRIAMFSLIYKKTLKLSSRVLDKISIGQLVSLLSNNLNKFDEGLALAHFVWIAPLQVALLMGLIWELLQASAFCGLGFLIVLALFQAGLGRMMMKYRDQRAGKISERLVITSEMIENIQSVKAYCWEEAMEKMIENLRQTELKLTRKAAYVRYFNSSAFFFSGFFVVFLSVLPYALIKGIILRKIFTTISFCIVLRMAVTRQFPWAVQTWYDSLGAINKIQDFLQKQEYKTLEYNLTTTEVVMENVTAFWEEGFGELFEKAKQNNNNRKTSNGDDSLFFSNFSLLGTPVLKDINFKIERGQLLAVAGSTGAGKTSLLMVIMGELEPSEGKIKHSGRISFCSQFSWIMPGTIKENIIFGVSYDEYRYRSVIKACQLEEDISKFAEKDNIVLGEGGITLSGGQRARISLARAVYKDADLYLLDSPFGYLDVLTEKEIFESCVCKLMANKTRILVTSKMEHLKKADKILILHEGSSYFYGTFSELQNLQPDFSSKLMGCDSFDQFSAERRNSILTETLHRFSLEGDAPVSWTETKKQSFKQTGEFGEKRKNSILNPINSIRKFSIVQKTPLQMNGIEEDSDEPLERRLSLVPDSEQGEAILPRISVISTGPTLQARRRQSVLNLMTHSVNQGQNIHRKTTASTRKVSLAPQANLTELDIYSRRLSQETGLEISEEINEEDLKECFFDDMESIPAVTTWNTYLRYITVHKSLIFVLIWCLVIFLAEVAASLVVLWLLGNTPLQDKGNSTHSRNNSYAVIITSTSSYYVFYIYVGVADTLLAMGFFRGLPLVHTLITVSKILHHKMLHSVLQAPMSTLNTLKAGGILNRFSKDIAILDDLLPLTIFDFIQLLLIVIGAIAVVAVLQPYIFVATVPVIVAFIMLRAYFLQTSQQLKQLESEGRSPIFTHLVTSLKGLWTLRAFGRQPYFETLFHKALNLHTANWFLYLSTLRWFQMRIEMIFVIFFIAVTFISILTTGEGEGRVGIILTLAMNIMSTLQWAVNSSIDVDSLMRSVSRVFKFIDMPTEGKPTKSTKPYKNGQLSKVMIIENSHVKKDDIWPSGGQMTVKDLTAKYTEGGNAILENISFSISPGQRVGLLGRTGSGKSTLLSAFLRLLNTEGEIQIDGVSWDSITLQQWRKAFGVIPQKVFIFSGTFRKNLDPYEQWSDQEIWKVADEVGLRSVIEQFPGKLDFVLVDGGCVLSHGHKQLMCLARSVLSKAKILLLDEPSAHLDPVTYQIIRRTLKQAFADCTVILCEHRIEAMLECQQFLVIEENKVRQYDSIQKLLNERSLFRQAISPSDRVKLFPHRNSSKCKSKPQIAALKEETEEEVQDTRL
Experimental: The controls used were forskoline (5 μM, n=8) and MPB-91 (250 μM, n=8).

delF508-CFTR [3] = target: T1, delF508-CFTR; test: Immunolocalisation of delF508-CFTR in CF15 cells (confocal); assay type: cell-based; set-up: CF15 human lung epithelial cells homozygous for the delF508 deletion; endogenous in cells; host or cells: CF15 human epithelial cells, homozygous delF508; details: 2 hrs treatment, 100 μM
Experimental: Immunolabelling allows visualising the cellular localisation of the CFTR protein by means of an anti-CFTR primary antibody (Ab), and a secondary Cy3-labelled fluorescent antibody directed against the primary antibody. The cells are first seeded on cover slips in an appropriate culture medium. The cells are then washed 3 times with TBS (157 mM NaCl, […] Tris base, pH 7.4) for 5 min. each time and then fixed by adding 3% TBS-paraformaldehyde for 20 min. After 3 washes with TBS (5 min. each), the cells are incubated with 0.1% TBS-triton (10 min) to make holes in the cell membrane, and then washed 3 times with TBS before being exposed to 0.5% TBS-BSA-0.05% saponin for 1 hr. The cells are then incubated with the primary anti-CFTR C terminal antibody (2 μg/ml) for 1 hr. The cells are washed 3 times (5 min. each) with TBS-BSA-saponin before incubating with the GAM-cy3 secondary antibody (1/400) for 1 hr. After 2 TBS washes (5 min. each), the nuclei are labelled by incubating with Topro3 (1/1,000) for 5 min. Finally, the cover slips can be mounted on a glass slide after 3 final TBS washes (5 min. each). The slides are analysed with a confocal microscope (Bio-Rad) using laser excitation at appropriate wave-lengths. In order to differentiate Cy3 from Topro3 labelling, the colour of the Topor3 fluorescence has been changed to blue (colour of the nuclei). […]

CHO-WT cells = test: MTT cytotoxicity test; assay type: cell-based, Chinese Hamster; details: 2 hrs incubation, different concentrations
Experimental: The MTT cytotoxicity test is a […] test based on the capacity of mitochondrial dehydrogenases to metabolise MTT (a yellow tetrazolium salt) into formazan (purple). The absorbance is proportional to the concentration of converted dye and can then be measured by spectrophotometry. The cells are incubated in 96-well microplates in the presence of the agent to be tested for 2 hours. Three controls are performed: 100% live cells (cells without any agent); 0% live cells (cells left under normal atmosphere); blank (medium without cells). The cells are rinsed with RPMI medium without phenol red in order for the colour of the medium not to interfere with absorbance measurements. The cells are then incubated for 4 hours with 100 μl RPMI solution supplemented with MTT (0.5 mg/ml). The medium is eliminated and 100 μl DMSO is added to dissolve the converted dye (formazan). The absorbance is measured by spectrophotometry at 570 nm (purple); 630 nm (background noise). In order to ignore the background noise, the following calculation is performed: DOreelle=DO570nm−DO630nm.
In order to test the cytotoxicity of roscovitine, CHO-WT cells were incubated for 2 hrs with different concentrations of inhibitors before being tested for viability with MTT.

wild-type CFTR [4] = target: T2, wild-type CFTR; test: Iodide efflux test of CFTR addressing in Calu-3 cells; assay type: cell-based; details: Calu-3 cells treated 2 hrs, 100 μM
delF508-CFTR [5] = target: T1, delF508-CFTR; test: Competition between roscovitine and ER chaperone machinery (iodide efflux); assay type: cell-based; set-up: CF15 human lung epithelial cells homozygous for the delF508 deletion; endogenous in cells; host or cells: CF15 human epithelial cells, homozygous delF508
From the text: The competition between CFTR-T1 and the ER chaperone machinery is illustrated by FIGS. 6A and 6B.
The table below summarises the roscovitine and ER chaperone machinery competition experiments performed by the iodide efflux technique. • inhibition, ** P<0.01, * P<0.1, ns P>0.1 (Student's t-test)

delF508-CFTR [6] = target: T1, delF508-CFTR; test: Immunoprecipitation and Western-Blot of delF508-CFTR in CF15 cells; assay type: cell-based; set-up: CF15 human lung epithelial cells homozygous for the delF508 deletion; endogenous in cells; host or cells: CF15 human epithelial cells, homozygous delF508; details: 2 hrs, 100 μM
Experimental: The study of delF508-CFTR protein addressing is performed in the laboratory by using a combination of pharmacological, cellular imagery, biochemical and electrophysiological tests on CF15 human lung epithelial cells homozygous for the delF508 deletion. Results of immunoprecipitation and Western-Blot analyses of non mutated CFTR from wild-type CHO cells and delF508 cells treated for 2 hrs with 100 μM of the tested compound (FIG. 3C) or untreated cells (control). CF15 cells treated for 24 hrs at 27° C. (FIG. 3B) or for 2 hrs with 10 μM thapsigargin (TG) were used as a positive control.

[7] = read-out: Ec50 (concentration giving 50% of maximal efficiency) for delF508 addressing, CF15 cells, 2 hrs at 37° C., stimulation with 10 μM Forskoline+30 μM Genisteine, n=4

| SMILES | EC50 (delF508-CFTR [1]; [7]) | Activation of wild-type CFTR or other anionic transporter (wild-type CFTR [2]) | Localisation of delF508-CFTR protein (delF508-CFTR [3]) | EC50 (delF508-CFTR [1]) | Function of readdressed delF508-CFTR (iodide efflux and patch-clamp on whole cells) (delF508-CFTR [1]) | Treatment time for maximal correction of delF508-CFTR chloride ion channel function (delF508-CFTR [1]; CF15 cells, 100 μM) | Restoration of delF508 addressing and ion transport function (delF508-CFTR [1]; CF15 cells, 2 hrs at 37° C., two forms (R and S)) | Cell viability (MTT) (CHO-WT cells) | CFTR activity after treatment (wild-type CFTR addressing) (wild-type CFTR [4]) | Competition with inhibitors of the chaperone and degradation machinery (delF508-CFTR [5]) | Effect of Brefeldine A (BFA) on the compound's action (delF508-CFTR [5]; BFA, inhibitor of ERGIC vesicular traffic) | Effect of MG132 on the compound's action (delF508-CFTR [5]; MG132, proteasome inhibitor) | Maturation of delF508-CFTR (band C in Western-Blot) (delF508-CFTR [6]) | Maturation of delF508-CFTR (band C in Western-Blot) (delF508-CFTR [6]; listed as CFTR-T1) |
| --- | --- | --- | --- | --- | --- | --- | --- | --- | --- | --- | --- | --- | --- | --- |
| CC[C@H](CO)Nc1nc(NCc2ccccc2)c2ncn(C(C)C)c2n1 [R-Roscovitine, 2-(R)-(1-ethyl-2-hydroxyethylamino)-6-benzylamino-9-isopropylpurine] | 34 ± 1.9 µM | – | – | – | – | – | – | – | – | – | – | – | – | – |
| CC[C@@H](CO)Nc1nc(NCc2ccccc2)c2ncn(C(C)C)c2n1 [S-Roscovitine, 2-(S)(1-ethyl-2-hydroxyethylamino)-6-benzylamino-9-isopropylpurine] | 32 ± 1.4 µM | – | – | – | – | – | – | – | – | – | – | – | – | – |
| CC[C@H](CO)Nc1nc(NCc2ccccc2)c2ncn(C(C)C)c2n1 [roscovitine] | – | not found to be an activator | localised in the plasma membrane compartment; also recorded: correct delF508-CFTR relocation to the plasma membrane; also recorded: allowed relocation of the delF508-CFTR protein to the membrane | 56 µM | functional | 2 h | restores addressing of the delF508 protein | viable at all concentrations | not significantly different from the controls | competed with inhibitors of calnexin/delF508-CFTR binding as well as inhibitors of the degradation pathway | inhibition | no modulation is observed | appearance of the mature CFTR band | maturation of delF508-CFTR (band C appears in the Western-Blot) |
